From patent US20230200390A1, “SELECTIVE HERBICIDES BASED ON SUBSTITUTED ISOXAZOLIN CARBOXAMIDES AND MEFENPYR-DIETHYL” (BAYER AKTIENGESELLSCHAFT, priority 2020, published 2023)

Columns and labels:
Assay type in all cases: in vivo
[1] = tested on: spring wheat, TRZAS Triso; experiment: Seed treatment with safener; post-emergence herbicide, crop damage; details: 10 DAT; for HER effect + SAF [%] (crop damage) / Reduction [%] / Reduction [Difference]: mefenpyr-diethyl 0.5 g a.i./kg seed; for HER effect [%] (crop damage, herbicide without safener): no safener
From the text: (§1) For safener seed treatment trials, sufficient seed amounts of the respective crops (spring wheat (TRZAS); spring barley (HORVS)) were weighed into screw cap glass bottles with a minimum volume trice of the seeds.
(§2) As a first step, specified safeners formulated as wettable powder (WP) or wettable granules (WG) were weighed out for the required dosages (g a.i./kg seed), corresponding to the seed amounts. The safener amounts were mixed with a coloured slurry blind formulation type, prediluted with milk at 3.5% fat rate (25 mgs slurry formulation plus 2 ml milk per 10 grams of seed). A tube roller was used for coating. The solutions were gradually pipetted each on the rotating seeds followed by coating for min. 3 hours until all liquid had been soaked up by the seeds. Thereafter, the coated seeds were put flat on open trays for drying over night at room temperature.
(§3) Treated seeds were then placed into pots (7 cm diameter) on the surface of sandy loam, pressed down, flat covered with additional soil and finally covered with sandy soil, also pressed down, watered, and kept under good growth conditions in a greenhouse, until the plants had reached 2-leaf-stage (BBCH 12).
(§4) At that stage, post-emergence application of the specified herbicides was done on:
(§5) a) pot sets containing plants with safener-coated seeds as described above,
(§6) b) as a reference, pot sets of plants without seed treatment.
(§7) The herbicides were formulated as wettable powder (WP). Equivalent to the spray area, compound amounts were weighed out and diluted related to the water application rate (300 l/ha) to an aqueous suspension plus additive (1 l/ha MERO). Dosage related equivalents were conventionally sprayed on trays with the potted plants.
(§8) After application, the test plants were kept under good growth conditions in a greenhouse.
(§9) Assessment timings were 10 and 21 days after treatment (DAT) with the herbicide, by visual scoring of the crop damage in % (comparison of untreated with treated plants, either sprayed only with herbicide or with herbicide on plants with treated seeds).

[2] = tested on: spring barley, HORVS Montoya; experiment: as above; details: for HER effect + SAF / Reduction [%] / Reduction [Difference]: mefenpyr-diethyl 0.5 g a.i./kg seed
From the text: as §1, §2, §3, §4, §5, §6, §7, §8, §9

[3] = tested on: spring wheat, TRZAS Triso; experiment: Tank-mix; post-emergence: crop damage by herbicide with/without safener mefenpyr-diethyl; details: 10 DAT
Protocol: (§10) Seeds of crops (spring wheat, TRZAS; spring barley, HORVS; maize, ZEAMA) were placed in sandy loam soil in peat pots, covered with soil and cultivated in a greenhouse under good growth conditions. Two to three weeks after sowing, the test plants were treated at the 1 to 3-leaf stage. The herbicide/safener active compound combinations according to the invention, formulated as wettable powders or emulsion concentrates, and, in parallel tests, the correspondingly formulated individual active compounds were sprayed onto the green parts of the plants in various dosages using an amount of water of 300 l/ha (converted).
(§11) The pots were returned under good growing conditions in a glasshouse and a visual assessment of herbicidal effects was made at intervals from 1 to 3 weeks after herbicide application (DAT=days after treatment). Assessment was on a percentage basis in comparison with untreated control plants (0%=no injury, 100%=complete kill).

[4] = tested on: spring barley, HORVS Montoya; experiment: as above
Protocol: as §10, §11

[5] = HER 8 g a.i./ha post-emergence, 21 DAT
[6] = HER 32 g a.i./ha post-emergence, 21 DAT
[7] = HER 8 g a.i./ha + mefenpyr-diethyl 50 g a.i./ha
[8] = HER 32 g a.i./ha + mefenpyr-diethyl 100 g a.i./ha
[9] = HER 8 g a.i./ha + mefenpyr-diethyl 50 g a.i./ha, 21 DAT
[10] = HER 32 g a.i./ha + mefenpyr-diethyl 100 g a.i./ha, 21 DAT
[11] = HER 8 g a.i./ha post-emergence, 10 DAT
[12] = HER 32 g a.i./ha post-emergence, 10 DAT
[13] = HER 8 g a.i./ha + mefenpyr-diethyl 50 g a.i./ha, 10 DAT

COC(=O)C1C=CC(NC(=O)C2(C)CC(c3cccc(F)c3)=NO2)C1 (stereo not shown) [Example 1.20]
HER effect + SAF [%] (crop damage) ([1]; HER dose 8 g a.i./ha): 0% | Reduction [%] ([1]; HER dose 8 g a.i./ha): 100% | Reduction [Difference] ([1]; HER dose 8 g a.i./ha): 20 | HER effect [%] (crop damage, herbicide without safener) ([1]; HER dose 8 g a.i./ha): 20% | HER effect + SAF [%] (crop damage) ([1]; HER dose 32 g a.i./ha): 0% | Reduction [%] ([1]; HER dose 32 g a.i./ha): 100% | Reduction [Difference] ([1]; HER dose 32 g a.i./ha): 50 | HER effect [%] (crop damage, herbicide without safener) ([1]; HER dose 32 g a.i./ha): 50% | HER effect + SAF [2, 5]: 10% | Reduction [%] [2, 5]: 67% | Reduction [Difference] [2, 5]: 20 | HER effect + SAF [2, 6]: 20% | Reduction [%] [2, 6]: 75% | Reduction [Difference] [2, 6]: 60 | HER effect ([2]; herbicide alone 8 g a.i./ha post-emergence, 21 DAT): 30% | HER effect ([2]; herbicide alone 32 g a.i./ha post-emergence, 21 DAT): 80% | HER effect + SAF [3, 7]: 0% | Reduction [%] [3, 7]: 100% | Reduction [Difference] [3, 7]: 20 | HER effect + SAF [3, 8]: 30% | Reduction [%] [3, 8]: 40% | Reduction [Difference] [3, 8]: 20 | HER effect ([3]; herbicide alone 8 g a.i./ha): 20% | HER effect ([3]; herbicide alone 32 g a.i./ha): 50% | HER effect + SAF [4, 9]: 0% | Reduction [%] [4, 9]: 100% | Reduction [Difference] [4, 9]: 30 | HER effect + SAF [4, 10]: 40% | Reduction [%] [4, 10]: 50% | Reduction [Difference] [4, 10]: 40 | HER effect ([4]; herbicide alone 8 g a.i./ha, 21 DAT): 30% | HER effect ([4]; herbicide alone 32 g a.i./ha, 21 DAT): 80%

C=CC1(C(=O)NC2COC(C(=O)OCCOC)C2)CC(c2cc(C)cc(F)c2)=NO1 (mixture of isomers) [Example 1.65]
HER effect + SAF [%] (crop damage) ([1]; HER dose 8 g a.i./ha): 0% | Reduction [%] ([1]; HER dose 8 g a.i./ha): 100% | Reduction [Difference] ([1]; HER dose 8 g a.i./ha): 20 | HER effect [%] (crop damage, herbicide without safener) ([1]; HER dose 8 g a.i./ha): 20% | HER effect + SAF [2, 11]: 20% | Reduction [%] [2, 11]: 75% | Reduction [Difference] [2, 11]: 60 | HER effect + SAF [2, 12]: 50% | Reduction [%] [2, 12]: 38% | Reduction [Difference] [2, 12]: 30 | HER effect ([2]; herbicide alone 8 g a.i./ha post-emergence, 10 DAT): 80% | HER effect ([2]; herbicide alone 32 g a.i./ha post-emergence, 10 DAT): 80% | HER effect + SAF [3, 7]: 0% | Reduction [%] [3, 7]: 100% | Reduction [Difference] [3, 7]: 20 | HER effect ([3]; herbicide alone 8 g a.i./ha): 20% | HER effect + SAF [4, 13]: 20% | Reduction [%] [4, 13]: 75% | Reduction [Difference] [4, 13]: 60 | HER effect ([4]; herbicide alone 8 g a.i./ha, 10 DAT): 80%
